Blank lines part the entries; values can stand above or below the compound they belong to.
Assays:
[1] = tested on: c-myc G-quadruplex (DNA, G4) TGAGGGTGGTGAGGGTGGGGAAGG; assay: fluorescence titration, plate reader; settings: 2 nM compound; site 1 of 2
[2] = tested on: c-kit21 G-quadruplex (DNA, G4) CGGGCGGGGCGCGAGGAAAA; assay: fluorescence titration, plate reader; settings: 2 nM compound; site 1 of 2
[3] = tested on: bcl-2 G-quadruplex (DNA, G4) AGGGGCGGGCGCGGGAGGAAGGGGGCGGGAGCGGGGCTG; assay: fluorescence titration, plate reader; settings: 2 nM compound; site 1 of 2
[4] = tested on: c-myc mutant DNA (DNA, single strand) TGAAAATAATGAAAATAAAAAAGA; assay: fluorescence titration, plate reader; settings: 2 nM compound
[5] = tested on: c-myc duplex (DNA, duplex) TGAGGGTGGTGAGGGTGGGGAAGG/CCTTCCCCACCCTCACCACCCTCA; assay: fluorescence titration, plate reader; settings: 2 nM compound; site 1 of 2
[6] = tested on: tel22 G-quadruplex (DNA, G4) AGGGTTAGGGTTAGGGTTAGGG; assay: fluorescence titration, plate reader; settings: 2 nM compound
[7] = tested on: c-myc G-quadruplex (DNA, G4) TGAGGGTGGTGAGGGTGGGGAAGG; assay: ITC; settings: K+ (50 mM KCl, 10 mM potassium phosphate); pH 7.0, 25 °C; site 1 of 2
[8] = tested on: c-myc duplex (DNA, duplex) TGAGGGTGGTGAGGGTGGGGAAGG/CCTTCCCCACCCTCACCACCCTCA; assay: ITC; settings: K+ (50 mM KCl, 10 mM potassium phosphate); pH 7.0, 25 °C; ~10^4 fold lower affinity than c-myc G4
[9] = tested on: c-myc mutant DNA (DNA, single strand) TGAAAATAATGAAAATAAAAAAGA; assay: gel retardation, native PAGE; settings: K+ (50 mM KCl, 10 mM potassium phosphate); pH 7.0, 25 °C; 10 µM DNA; up to 100 µM compound
[10] = tested on: c-myc mutant DNA (DNA, single strand) TGAAAATAATGAAAATAAAAAAGA; assay: ITC; settings: K+ (50 mM KCl, 10 mM potassium phosphate); pH 7.0, 25 °C; ~10^4 fold lower affinity than c-myc G4

SMILES: CC(C)=NOC(=O)Nc1ccc(Cl)cc1
Kd1 [2]: 1.71 ± 0.005 µM
Kd1 [1]: 0.010 ± 0.003 µM
Kd1 [3]: 0.761 ± 0.01 µM
Kd1 ([4]; site 1 of 2): 0.023 ± 0.03 µM
Kd1 [5]: 0.559 ± 0.03 µM
Kd2 ([6]; stronger of two sites, printed as Kd2 (Kd1 3.47)): 2.89 ± 0.03 µM
Ka1 [7]: 3.34 × 10^5 ± 0.4 M^-1

SMILES: CC(CCN=Cc1ccccc1O)N=Cc1ccccc1O (centres unmarked)
Kd1 [1]: 3.76 ± 0.03 µM

SMILES: O=C(/C=C/C=C/c1ccc2c(c1)OCO2)N1CCCCC1
Ka1 [7]: 4.56 × 10^5 ± 0.03 M^-1

SMILES: O=S(=O)(NCCNS(=O)(=O)c1ccccc1)c1ccccc1
Kd1 [2]: 4.86 ± 0.02 µM
Kd1 [1]: 0.002 ± 0.001 µM
Kd1 [3]: 0.024 ± 0.009 µM
Kd2 [4]: 0.195 ± 0.04 µM
Kd1 [5]: 1.81 ± 0.09 µM
Kd1 ([6]; site 1 of 2): 0.19 ± 0.02 µM
binding [8]: weak
Ka1 [7]: 3.81 × 10^7 ± 0.01 M^-1
binding [9]: no
binding [10]: weak

SMILES: Oc1ccccc1NCCNc1ccccc1O
Kd1 [1]: 2.56 ± 0.02 µM

Now from value to compound:

Kd1 [1]: 2.86 ± 0.03 µM
SMILES: CC(=NNC(=S)NN=C(C)c1ccccc1)c1ccccc1

Kd1 [1]: 1.34 ± 0.13 µM
SMILES: Cc1ccc(NC(=S)Nc2ccccc2)cc1

Kd1 [1]: 4.61 ± 0.05 µM
SMILES: O=C(CC(=O)Nc1ccccc1)Nc1ccccc1
